According to paper PMC6222509, “Dibasic Derivatives of Phenylcarbamic Acid against Mycobacterial Strains: Old Drugs and New Tricks?” (Molecules : A Journal of Synthetic Chemistry and Natural …, 2018):
≈ marks a conversion by molar mass, not a printed value. Read-outs that look alike come from different tables or passages of the source.

Assays:
[1] = system: M. avium CNCTC My 330/80 (identical with ATCC 25291; MA 330/80); assay: in vitro antimycobacterial MIC, dilution micromethod in Šula's semisynthetic medium; type: cell-based, Mycobacterium avium
[2] = system: M. kansasii DSM 44162 (MK DSM); assay: in vitro antimycobacterial MIC, broth dilution micromethod in Middlebrook 7H9; type: cell-based; settings: Mycobacterium kansasii, DSM 44162 / DSM 7, 168 h
[3] = system: M. kansasii CNCTC My 235/80 (identical with ATCC 12478; MK 235/80); assay: in vitro antimycobacterial MIC, dilution micromethod in Šula's semisynthetic medium; type: cell-based, Mycobacterium kansasii
[4] = system: white mice; settings: subcutaneous application; cited from earlier work
[5] = system: guinea pig; set-up: method as in PMID 8402965; settings: intradermal, 0.02 M procaine as standard; cited from earlier work
[6] = system: rabbit cornea; set-up: method as in PMID 8402965; settings: 0.01 M cocaine as standard; cited from earlier work
[7] = Mycobacterium avium, ATCC25291, 336 h, 14-day cultivation, read-out: MIC MA 330/80 14-d
[8] = Mycobacterium avium, ATCC25291, 504 h, 21-day cultivation, read-out: MIC MA 330/80 21-d
[9] = 7-day cultivation, 37 °C, read-out: MIC MK DSM 7-d
[10] = Mycobacterium kansasii, ATCC12478, 168 h, 7-day cultivation, read-out: MIC MK 235/80 7-d
[11] = Mycobacterium kansasii, ATCC12478, 336 h, 14-day cultivation, read-out: MIC MK 235/80 14-d
[12] = Mycobacterium kansasii, ATCC12478, 504 h, 21-day cultivation, read-out: MIC MK 235/80 21-d
[13] = Mycobacterium avium, ATCC25291, 336 h, read-out: MIC MA 330/80 14-d
[14] = Mycobacterium avium, ATCC25291, 504 h, read-out: MIC MA 330/80 21-d
[15] = read-out: MIC MK DSM 7-d, 7-day cultivation, 37 °C
[16] = Mycobacterium kansasii, ATCC12478, 168 h, read-out: MIC MK 235/80 7-d
[17] = Mycobacterium kansasii, ATCC12478, 336 h, read-out: MIC MK 235/80 14-d
[18] = Mycobacterium kansasii, ATCC12478, 504 h, read-out: MIC MK 235/80 21-d
[19] = Mycobacterium kansasii, ATCC12478, read-out: MIC MK 235/80
[20] = 21-day cultivation, read-out: MIC MA 330/80 21-d
[21] = 14-day cultivation, read-out: MIC MK 235/80 14-d
[22] = 21-day cultivation, read-out: MIC MK 235/80 21-d

| Structure (SMILES) | MIC [1, 7] [µM] | MIC [1, 8] [µM] | MIC [2, 9] [µM] | MIC [3, 10] [µM] | MIC [3, 11] [µM] | MIC [3, 12] [µM] | MIC [1, 13] [µM] | MIC [1, 14] [µM] | MIC [2, 15] [µM] | MIC [3, 16] [µM] | MIC [3, 17] [µM] | MIC [3, 18] [µM] | other results |
| --- | --- | --- | --- | --- | --- | --- | --- | --- | --- | --- | --- | --- | --- |
| CCCCOc1ccccc1NC(=O)OC(CN(CCC)CCC)CN1CCCC1 (centres unmarked) [1a] | 125 (≈ 52.5 µg/mL) | 125 (≈ 52.5 µg/mL) | 53 (≈ 22.2 µg/mL) | 62.5 (≈ 26.2 µg/mL) | 62.5 (≈ 26.2 µg/mL) | 62.5 (≈ 26.2 µg/mL) |  |  |  |  |  |  |  |
| CCCCCOc1ccccc1NC(=O)OC(CN(CCC)CCC)CN1CCCC1 (centres unmarked) [1b] | 62.5 (≈ 27.1 µg/mL) | 125 (≈ 54.2 µg/mL) | 26.1 (≈ 11.3 µg/mL) | 32 (≈ 13.9 µg/mL) | 32 (≈ 13.9 µg/mL) | 62.5 (≈ 27.1 µg/mL) |  |  |  |  |  |  |  |
| CCCCCCOc1ccccc1NC(=O)OC(CN(CCC)CCC)CN1CCCC1 (centres unmarked) [1c] | 32 (≈ 14.3 µg/mL) | 62.5 (≈ 28 µg/mL) | 12.7 (≈ 5.69 µg/mL) | 32 (≈ 14.3 µg/mL) | 32 (≈ 14.3 µg/mL) | 32 (≈ 14.3 µg/mL) |  |  |  |  |  |  | LD50 [4]: 600 mg/kg |
| CCCCCCCOc1ccccc1NC(=O)OC(CN(CCC)CCC)CN1CCCC1.Cl.Cl (centres unmarked) [1d, 1-[2-[({[2-(heptyl-oxy)phenyl]amino}carbonyl)oxy]-3-(dipropylammonio)propyl]pyrrolidinium dichloride] |  |  |  |  |  |  | 32 | 32 | 6.2 | 16 | 16 | 32 |  |
| CCCCOc1cccc(NC(=O)OC(CN(CCC)CCC)CN2CCCC2)c1 (centres unmarked) [1e] | 62.5 (≈ 26.2 µg/mL) | 62.5 (≈ 26.2 µg/mL) | 16.2 (≈ 6.8 µg/mL) | 32 (≈ 13.4 µg/mL) | 32 (≈ 13.4 µg/mL) | 32 (≈ 13.4 µg/mL) |  |  |  |  |  |  |  |
| CCCCCOc1cccc(NC(=O)OC(CN(CCC)CCC)CN2CCCC2)c1.Cl.Cl (centres unmarked) [1f, 1-[2-[({[3-(pentyloxy)phenyl]amino}carbonyl)oxy]-3-(dipropylammonio)propyl]-pyrrolidinium dichloride] |  |  |  |  |  |  | 32 | 32 | 7.9 | 16 | 16 | 32 | Ui, index of relative infiltration local anesthetic efficiency [5]: 250; Us, index of relative surface local anesthetic efficiency [6]: 130 |
| CCCCCCOc1cccc(NC(=O)OC(CN(CCC)CCC)CN2CCCC2)c1 (centres unmarked) [1g] | 16 (≈ 7.16 µg/mL) | 16 (≈ 7.16 µg/mL) | 3.8 (≈ 1.7 µg/mL) | 16 (≈ 7.16 µg/mL) | 16 (≈ 7.16 µg/mL) | 16 (≈ 7.16 µg/mL) |  |  |  |  |  |  | MIC ([1]; Mycobacterium avium, ATCC25291, cultivation time not given, read-out: MIC MA 330/80): 16 µM (≈ 7.16 µg/mL) |
| CCCCCCCOc1cccc(NC(=O)OC(CN(CCC)CCC)CN2CCCC2)c1.Cl.Cl (centres unmarked) [1h, 1-[2-[({[3-(heptyloxy)phenyl]amino}carbonyl)oxy]-3-(dipropylammonio)propyl]pyrrolidinium dichloride] |  |  |  |  |  |  | 8 | 16 | 1.9 | 8 | 8 | 8 | MIC ([1]; Mycobacterium avium, ATCC25291, read-out: MIC MA 330/80): 16 µM; MIC [3, 19]: 8 µM |
| CCCCOc1ccccc1NC(=O)OC(CN(CCC)CCC)CN1CCCCCC1 (centres unmarked) [1i] | 62.5 (≈ 28 µg/mL) | 125 (≈ 56 µg/mL) | 51 (≈ 22.8 µg/mL) | 32 (≈ 14.3 µg/mL) | 62.5 (≈ 28 µg/mL) | 62.5 (≈ 28 µg/mL) |  |  |  |  |  |  |  |
| CCCCCOc1ccccc1NC(=O)OC(CN(CCC)CCC)CN1CCCCCC1.O=C(O)C(=O)O (centres unmarked) [1j, 1-[2-[({[2-(Pentyloxy)phenyl]amino}carbonyl)oxy]-3-(dipropylammonio)propyl]-azepanium oxalate] |  |  |  |  |  |  | 62.5 | 125 | 50 | 16 | 32 | 62.5 |  |
| CCCCCCOc1ccccc1NC(=O)OC(CN(CCC)CCC)CN1CCCCCC1 (centres unmarked) [1k] | 32 (≈ 15.2 µg/mL) | 62.5 (≈ 29.7 µg/mL) | 98 (≈ 46.6 µg/mL) | 16 (≈ 7.61 µg/mL) | 32 (≈ 15.2 µg/mL) | 62.5 (≈ 29.7 µg/mL) |  |  |  |  |  |  |  |
| CCCCCCCOc1cccc(NC(=O)OC(CN(CCC)CCC)CN2CCCCCC2)c1.O=C(O)C(=O)O (centres unmarked) [1l, 1-[2-[({[3-(hept-yloxy)phenyl]amino}carbonyl)oxy]-3-(dipropylammonio)propyl]azepanium oxalate] | 32 |  | 382 | 16 |  |  |  |  |  |  |  |  | MIC [1, 20]: 62.5 µM; MIC [3, 21]: 32 µM; MIC [3, 22]: 32 µM |
| CCCCOc1cccc(NC(=O)OC(CN(CCC)CCC)CN2CCCCCC2)c1 (centres unmarked) [1m] | 16 (≈ 7.16 µg/mL) | 32 (≈ 14.3 µg/mL) | 7.7 (≈ 3.45 µg/mL) | 16 (≈ 7.16 µg/mL) | 16 (≈ 7.16 µg/mL) | 32 (≈ 14.3 µg/mL) |  |  |  |  |  |  |  |
| CCCCCOc1cccc(NC(=O)OC(CN(CCC)CCC)CN2CCCCCC2)c1.Cl.Cl (centres unmarked) [1n, 1-[2-[({[3-(pentyloxy)phenyl]amino}carbonyl)oxy]-3-(di-propylammonio)propyl]azepanium dichloride] |  |  |  |  |  |  | 16 | 16 | 7.5 | 8 | 8 | 8 | MIC [3, 19]: 8 µM |
| CCCCCCOc1cccc(NC(=O)OC(CN(CCC)CCC)CN2CCCCCC2)c1.Cl.Cl (centres unmarked) [1o, 1-[2-[({[3-(hexyloxy)phenyl]amino}-carbonyl)oxy]-3-(dipropylammonio)propyl]azepanium dichloride] |  |  |  |  |  |  | 16 | 16 | 3.6 | 8 | 16 | 16 |  |
| CCCCCCCOc1cccc(NC(=O)OC(CN(CCC)CCC)CN2CCCCCC2)c1.Cl.Cl (centres unmarked) [1p, 1-[2-[({[3-(heptyloxy)phenyl]amino}carbonyl)-oxy]-3-(dipropylammonio)propyl]azepanium dichloride] |  |  |  |  |  |  |  |  | 3.6 |  |  |  | MIC ([1]; 14-day cultivation, read-out: MIC MA 330/80 14-d): 16 µM; MIC [1, 20]: 16 µM; MIC ([3]; 7-day cultivation, read-out: MIC MK 235/80 7-d): 8 µM; MIC [3, 21]: 8 µM; MIC [3, 22]: 8 µM; MIC ([3]; Mycobacterium kansasii, ATCC12478, cultivation time not given, read-out: MIC MK 235/80): 8 µM |
